From ChEMBL document CHEMBL1201862, “PubChem BioAssay data set” (2004)
Where “and” joins values, the source holds several entries; their conditions need not be identical. Identical values can stand only once.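 Test compounds were applied to cells in 96-well plates for 48 hours at 5 doses. GI50 = concentration required for 50% inhibition of growth.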 Calls of active or inactive are those of the source. Cut-off read from the data, not from the text of the source: active = GI50 up to about 1.1 µM and inactive = higher.

Tests used:
Test in all cases: NCI anticancer screen, dose series, 48 h
[1] = system: ACHN
[2] = system: BT-549
[3] = system: COLO 205
[4] = system: EKVX
[5] = system: HCT-15
[6] = system: HT-29
[7] = system: IGROV-1
[8] = system: KM12
[9] = system: M14
[10] = system: MDA-MB-231
[11] = system: MDA-MB-435
[12] = system: NCI-H226
[13] = system: PC-3
[14] = system: RPMI-8226
[15] = system: SK-MEL-2
[16] = system: SNB-75
[17] = system: T47D
[18] = system: UACC-257
[19] = system: SNB-19
[20] = system: MCF7

Row | Structure (SMILES) | GI50 [1] | GI50 [2] | GI50 [3] | GI50 [4] | GI50 [5] | GI50 [6] | GI50 [7] | GI50 [8] | GI50 [9] | GI50 [10] | GI50 [11] | GI50 [12] | GI50 [13] | GI50 [14] | GI50 [15] | GI50 [16] | GI50 [17] | GI50 [18] | GI50 [19] | GI50 [20]
1 | Brc1ccc2c(c1)C1=C(CO2)Cc2ccccc2O1 | 19.2 µM (inactive) | 18.2 µM (inactive) | 17.4 µM (inactive) | 20.9 µM (inactive) | 17.3 µM | 23.3 µM (inactive) | 12.4 µM (inactive) | 19 µM (inactive) | 19.3 µM (inactive) | 16.4 µM (inactive) | 16.9 µM (inactive) | 17.5 µM (inactive) | 17.1 µM (inactive) | 18.2 µM (inactive) | 17.7 µM (inactive) | 22 µM (inactive) | 13.1 µM (inactive) | 17.9 µM (inactive) | – | –
2 | CC(=O)/C=C1\Nc2ccc([N+](=O)[O-])cc2N\C1=C/C(C)=O | 42.5 µM (inactive) | 31.9 µM (inactive) | 58.2 µM (inactive) | 42.4 µM (inactive) | 33.4 µM | 54 µM (inactive) | 39.5 µM (inactive) | 34.3 µM (inactive) | > 100 µM (inactive) | 92.5 µM (inactive) | 82.4 µM (inactive) | 39.4 µM (inactive) | 44.3 µM (inactive) | 20.6 µM (inactive) | 29.2 µM (inactive) | > 100 µM (inactive) | 33.8 µM (inactive) | 21.9 µM (inactive) | 42.2 µM (inactive) | –
3 | COc1cc2c(cc1OC)C1Cc3cc(OC)c(OC)cc3C(C2)N1C | > 100 µM (inactive) | > 75 µM (inactive) | > 75 µM (inactive) | > 100 µM (inactive) | > 100 µM | – | > 75 µM (inactive) | 44.3 µM (inactive) | > 100 µM (inactive) | 0.0297 µM (active) | > 75 µM (inactive) | > 75 µM (inactive) | > 75 µM (inactive) | – | > 75 µM (inactive) | > 100 µM (inactive) | > 75 µM (inactive) | > 100 µM (inactive) | > 100 µM (inactive) | > 75 µM (inactive)
4 | CC(=O)OC(/C=C/c1ccccc1)P1(=O)N(CC(C)(C)C)[C@@H]2CCCC[C@H]2N1CC(C)(C)C (stereo partly specified) | 10 µM (inactive) and 7.57 µM (inactive) | 11.5 µM (inactive) and 14.4 µM (inactive) | 3.69 µM (inactive) and 3.6 µM (inactive) | 5.27 µM (inactive) and 5.68 µM (inactive) | 6.75 µM and 4.97 µM | 4.25 µM (inactive) and 3.89 µM (inactive) | 5.11 µM (inactive) and 6.78 µM (inactive) | 6.3 µM (inactive) and 6.65 µM (inactive) | 5.9 µM (inactive) and 5.24 µM (inactive) | 9.68 µM (inactive) and 7.26 µM (inactive) | 7.36 µM (inactive) and 10 µM (inactive) | 6.87 µM (inactive) and 10.9 µM (inactive) | 3.44 µM (inactive) and 3.03 µM (inactive) | 3.1 µM (inactive) | 11.1 µM (inactive) and 5.96 µM (inactive) | – | – | 4.07 µM (inactive) and 3.3 µM (inactive) | 10.5 µM (inactive) and 8.15 µM (inactive) | 4.79 µM (inactive) and 4.61 µM (inactive)
5 | CC(=O)OC1CC[C@@]2(C)C(C1)CC(OC(C)=O)[C@@H]1C2CC(OC(C)=O)[C@]2(C)C(C(C)CC=C(c3ccc(Cl)cc3)c3ccc(Cl)cc3)CCC12 (stereo partly specified) | 23.3 µM (inactive) | – | > 100 µM (inactive) | 97.1 µM (inactive) | 38.1 µM | 39 µM (inactive) | > 100 µM (inactive) | 64 µM (inactive) | 80.4 µM (inactive) | 48 µM (inactive) | > 100 µM (inactive) | – | 23.6 µM (inactive) | 5.33 µM (inactive) | – | 49.5 µM (inactive) | 32.1 µM (inactive) | 38.6 µM (inactive) | 58.6 µM (inactive) | 38.8 µM (inactive)
6 | C/C=C\C(CC(=O)O)CN1CCC2=C(C1)C(S(=O)(=O)C(F)(F)F)c1ccccc12 (stereo unspecified) | > 100 µM (inactive) | > 100 µM (inactive) | > 100 µM (inactive) | > 100 µM (inactive) | > 100 µM | > 100 µM (inactive) | > 100 µM (inactive) | > 100 µM (inactive) | > 100 µM (inactive) | > 100 µM (inactive) | > 100 µM (inactive) | – | > 100 µM (inactive) | > 100 µM (inactive) | > 100 µM (inactive) | > 100 µM (inactive) | – | > 100 µM (inactive) | > 100 µM (inactive) | > 100 µM (inactive)
7 | COC(=O)c1c(C)cccc1CC1Cc2c(C)cccc2C1=O (stereo unspecified) | 35.7 µM (inactive) | 35.9 µM (inactive) | 21.2 µM (inactive) | 33.7 µM (inactive) | 25.8 µM | 30.5 µM (inactive) | 33.3 µM (inactive) | 20.1 µM (inactive) | 31.5 µM (inactive) | 32.4 µM (inactive) | 21.7 µM (inactive) | 20.6 µM (inactive) | 34.4 µM (inactive) | – | 18.7 µM (inactive) | 29.7 µM (inactive) | 27.5 µM (inactive) | 27.8 µM (inactive) | 48.3 µM (inactive) | –
